Assay results from patent publication US7265129B2, “Anti-infective biaryl compounds” (priority 2002, dated 2007).

Columns and labels:
[1] = test system: E. faecalis ATCC 29212; experiment: MIC, NCCLS broth microdilution, E. faecalis; format: cell-based, Enterococcus faecalis
Description: (§1) It vitro biological activity data were collected for a variety of microorganisms, including Bacillus cereus (ATCC 11778), Staphylococcus aureus (ATCC 33591; ATCC 27660, a methicillin resistant strain (MRSA); ATCC 13709, a methicillin sensitive strain (MSSA)), Enterococcus faecalis (ATCC 29212), and Streptococcus pneumoniae (ATCC 49619). Additionally, antifungal activity data were collected for Candida albicans (ATCC 38247).
(§2) Compounds according to this invention were screened for their in vitro activities against selected species of bacteria and fungi. The minimal inhibition concentration (MIC) of these compounds was determined using the National Committee for Clinical Laboratory Standards (NCCLS) broth microdilution assay in microtiter plates, as set forth in: (1) the guidelines of the National Committee for Clinical Laboratory Standards (NCCLS) Document M7-A4 (NCCLS, 1997); (2) the guidelines of the National Committee for Clinical Laboratory Standards (NCCLS) Document M11-A4 (NCCLS, 1997); and (3) the guidelines and reference method of the National Committee for Clinical Laboratory Standards (NCCLS) Document M27-T (NCCLS, 1995). For antifungal assays, the method recommended in Murray, P R., 1995 Manual of Clinical Microbiology (ASM Press, Washington, D.C.), was employed.

[2] = test system: S. pneumoniae ATCC 49619; experiment: MIC, NCCLS broth microdilution, S. pneumoniae; format: cell-based, Streptococcus pneumoniae
Description: as §1, §2

[3] = test system: B. cereus ATCC 11778; experiment: MIC, NCCLS broth microdilution, B. cereus; format: cell-based, Bacillus cereus
Description: as §1, §2

[4] = test system: C. albicans ATCC 38247; experiment: MIC, antifungal assay, C. albicans; format: cell-based, Candida albicans
Description: as §1, §2

[5] = test system: S. aureus ATCC 13709; experiment: MIC, NCCLS broth microdilution, S. aureus MSSA; format: cell-based, Staphylococcus aureus; settings: S. aureus ATCC 13709, methicillin sensitive strain (MSSA)
Description: as §1, §2

[6] = test system: S. aureus ATCC 27660; experiment: MIC, NCCLS broth microdilution, S. aureus MRSA; format: cell-based, Staphylococcus aureus; settings: S. aureus ATCC 27660, methicillin resistant strain (MRSA)
Description: as §1, §2

[7] = test system: S. aureus ATCC 33591; experiment: MIC, NCCLS broth microdilution, S. aureus ATCC 33591; format: cell-based, Staphylococcus aureus
Description: as §1, §2

SMILES | Minimum Inhibitory Concentration (MIC), organism C [1] | Minimum Inhibitory Concentration (MIC), organism G [2] | Minimum Inhibitory Concentration (MIC), organism A [3] | Minimum Inhibitory Concentration (MIC), organism B [4] | Minimum Inhibitory Concentration (MIC), organism D [5] | Minimum Inhibitory Concentration (MIC), organism E [6] | Minimum Inhibitory Concentration (MIC), organism F [7]
CN(C)CCCn1cc(NC(=O)c2ccc(F)cc2F)cc1C(=O)Nc1cc(-c2nc3ccncc3[nH]2)n(C)c1 [Compound A-18] | +++ (MIC ≦ 4 μg/mL) | +++ (MIC ≦ 4 μg/mL) | + (12 ≦ MIC ≦ 32 μg/mL) | >32 µg/mL | + (12 ≦ MIC ≦ 32 μg/mL) | +++ (MIC ≦ 4 μg/mL) | +++ (MIC ≦ 4 μg/mL)
CN(C)CCCn1cc(NC(=O)c2ccc(F)cc2F)cc1C(=O)Nc1cc(-c2nc3ncncc3[nH]2)n(C)c1 [Compound A-19] | ++ (4 < MIC < 12 μg/mL) | +++ (MIC ≦ 4 μg/mL) | + (12 ≦ MIC ≦ 32 μg/mL) | >32 µg/mL | + (12 ≦ MIC ≦ 32 μg/mL) | + (12 ≦ MIC ≦ 32 μg/mL) | + (12 ≦ MIC ≦ 32 μg/mL)
Cn1cc(NC(=O)c2cc(NC(=O)c3sc4ccccc4c3Cl)cn2CCCN2CCCCC2)cc1-c1nc2ccccc2[nH]1 [Compound A-23] | +++ (MIC ≦ 4 μg/mL) | +++ (MIC ≦ 4 μg/mL) | +++ (MIC ≦ 4 μg/mL) | + (12 ≦ MIC ≦ 32 μg/mL) | +++ (MIC ≦ 4 μg/mL) | +++ (MIC ≦ 4 μg/mL) | +++ (MIC ≦ 4 μg/mL)
Cn1cc(NC(=O)c2cc(NC(=O)c3sc4ccccc4c3Cl)cn2CCCN2CCC(F)(F)CC2)cc1-c1nc2ccccc2[nH]1 [Compound A-25] | + (12 ≦ MIC ≦ 32 μg/mL) | ++ (4 < MIC < 12 μg/mL) | >32 µg/mL | >32 µg/mL | + (12 ≦ MIC ≦ 32 μg/mL) | + (12 ≦ MIC ≦ 32 μg/mL) | + (12 ≦ MIC ≦ 32 μg/mL)
Cn1cc(NC(=O)c2cc(NC(=O)c3sc4ccccc4c3Cl)cn2CCCN2CCOCC2)cc1-c1nc2ccccc2[nH]1 [Compound A-26] | +++ (MIC ≦ 4 μg/mL) | +++ (MIC ≦ 4 μg/mL) | +++ (MIC ≦ 4 μg/mL) | >32 µg/mL | +++ (MIC ≦ 4 μg/mL) | +++ (MIC ≦ 4 μg/mL) | +++ (MIC ≦ 4 μg/mL)
Cn1cc(NC(=O)c2cc(NC(=O)c3sc4ccccc4c3Cl)cn2CCC[n+]2ccccc2)cc1-c1nc2ccccc2[nH]1 [Compound A-27] | + (12 ≦ MIC ≦ 32 μg/mL) | + (12 ≦ MIC ≦ 32 μg/mL) | + (12 ≦ MIC ≦ 32 μg/mL) | + (12 ≦ MIC ≦ 32 μg/mL) | ++ (4 < MIC < 12 μg/mL) | ++ (4 < MIC < 12 μg/mL) | ++ (4 < MIC < 12 μg/mL)
CN(C)CCCn1cc(NC(=O)c2sc3ccccc3c2Cl)cc1C(=O)Nc1cc(-c2nc3ncccc3[nH]2)n(C)c1 [Compound A-28] | +++ (MIC ≦ 4 μg/mL) | +++ (MIC ≦ 4 μg/mL) | +++ (MIC ≦ 4 μg/mL) | >32 µg/mL | +++ (MIC ≦ 4 μg/mL) | +++ (MIC ≦ 4 μg/mL) | +++ (MIC ≦ 4 μg/mL)
CN(C)CCCn1cc(NC(=O)c2sc3ccccc3c2Cl)cc1C(=O)Nc1cc(-c2nc3ccncc3[nH]2)n(C)c1 [Compound A-29] | +++ (MIC ≦ 4 μg/mL) | +++ (MIC ≦ 4 μg/mL) | +++ (MIC ≦ 4 μg/mL) | ++ (4 < MIC < 12 μg/mL) | +++ (MIC ≦ 4 μg/mL) | +++ (MIC ≦ 4 μg/mL) | +++ (MIC ≦ 4 μg/mL)
Cn1cc(NC(=O)c2cc(NC(=O)c3ccc(Cl)cc3F)cn2CCCN2CCCCC2)cc1-c1nc2ccccc2[nH]1 [Compound A-32] | +++ (MIC ≦ 4 μg/mL) | +++ (MIC ≦ 4 μg/mL) | +++ (MIC ≦ 4 μg/mL) | + (12 ≦ MIC ≦ 32 μg/mL) | +++ (MIC ≦ 4 μg/mL) | +++ (MIC ≦ 4 μg/mL) | +++ (MIC ≦ 4 μg/mL)
Cn1cc(NC(=O)c2cc(NC(=O)c3ccc(Cl)cc3F)cn2CCCN2CCSCC2)cc1-c1nc2ccccc2[nH]1 [Compound A-33] | +++ (MIC ≦ 4 μg/mL) | +++ (MIC ≦ 4 μg/mL) | +++ (MIC ≦ 4 μg/mL) | >32 µg/mL | +++ (MIC ≦ 4 μg/mL) | +++ (MIC ≦ 4 μg/mL) | +++ (MIC ≦ 4 μg/mL)
Cn1cc(NC(=O)c2cc(NC(=O)c3ccc(Cl)cc3F)cn2CCCN2CCC(O)CC2)cc1-c1nc2ccccc2[nH]1 [Compound A-34] | +++ (MIC ≦ 4 μg/mL) | +++ (MIC ≦ 4 μg/mL) | +++ (MIC ≦ 4 μg/mL) | + (12 ≦ MIC ≦ 32 μg/mL) | +++ (MIC ≦ 4 μg/mL) | +++ (MIC ≦ 4 μg/mL) | +++ (MIC ≦ 4 μg/mL)
Cn1cc(NC(=O)c2cc(NC(=O)c3ccc(Cl)cc3F)cn2CCCN2CCC(F)(F)CC2)cc1-c1nc2ccccc2[nH]1 [Compound A-35] | +++ (MIC ≦ 4 μg/mL) | +++ (MIC ≦ 4 μg/mL) | +++ (MIC ≦ 4 μg/mL) | >32 µg/mL | +++ (MIC ≦ 4 μg/mL) | +++ (MIC ≦ 4 μg/mL) | +++ (MIC ≦ 4 μg/mL)
Cn1cc(NC(=O)c2cc(NC(=O)c3ccc(Cl)cc3F)cn2CCCN(CCO)CCO)cc1-c1nc2ccccc2[nH]1 [Compound A-36] | +++ (MIC ≦ 4 μg/mL) | +++ (MIC ≦ 4 μg/mL) | ++ (4 < MIC < 12 μg/mL) | + (12 ≦ MIC ≦ 32 μg/mL) | ++ (4 < MIC < 12 μg/mL) | +++ (MIC ≦ 4 μg/mL) | +++ (MIC ≦ 4 μg/mL)
